Measured values published in ChEMBL document CHEMBL3112450, “Synthesis and in vitro antitumor evaluation of primary amine substituted quinazoline linked benzimidazole” (Bioorg Med Chem Lett, 2014).

System: SF-268
Assay: Cytotoxicity against human SF268 cells assessed as cell growth at 10^-5 M after 48 hrs by SRB assay
Format: functional
Settings: SF-268, 48 h, read-out: Activity

Compound | growth at 10 µM [%]
C=CCn1c(C)nc2cc(Nc3nc(Nc4ccc5nc(C)n(CC=C)c5c4)c4ccccc4n3)ccc21 | -99

System: SK-OV-3
Assay: Cytotoxicity against human SKOV3 cells assessed as cell growth at 10^-5 M after 48 hrs by SRB assay
Format: functional
Settings: SK-OV-3, 48 h, read-out: Activity

Compound | growth at 10 µM [%]
C=CCn1c(C)nc2cc(Nc3nc(Nc4ccc5nc(C)n(CC=C)c5c4)c4ccccc4n3)ccc21 | -95.7

System: DU-145
Assay: Cytotoxicity against human DU145 cells assessed as cell growth at 10^-5 M after 48 hrs by SRB assay
Format: functional
Settings: DU-145, 48 h, read-out: Activity

Compound | growth at 10 µM [%]
C=CCn1c(C)nc2cc(Nc3nc(Nc4ccc5nc(C)n(CC=C)c5c4)c4ccccc4n3)ccc21 | -100

System: SN12C
Assay: Cytotoxicity against human SN12C cells assessed as cell growth at 10^-5 M after 48 hrs by SRB assay
Format: functional
Settings: read-out: Activity

Compound | growth at 10 µM [%]
C=CCn1c(C)nc2cc(Nc3nc(Nc4ccc5nc(C)n(CC=C)c5c4)c4ccccc4n3)ccc21 | -76

System: SW-620
Assay: Cytotoxicity against human SW620 cells assessed as cell growth at 10^-5 M after 48 hrs by SRB assay
Format: functional
Settings: SW-620, 48 h, read-out: Activity

Compound | growth at 10 µM [%]
C=CCn1c(C)nc2cc(Nc3nc(Nc4ccc5nc(C)n(CC=C)c5c4)c4ccccc4n3)ccc21 | -76.2

System: SK-MEL-5
Assay: Cytotoxicity against human SK-MEL-5 cells assessed as cell growth at 10^-5 M after 48 hrs by SRB assay
Format: functional
Settings: SK-MEL-5, 48 h, read-out: Activity

Compound | growth at 10 µM [%]
C=CCn1c(C)nc2cc(Nc3nc(Nc4ccc5nc(C)n(CC=C)c5c4)c4ccccc4n3)ccc21 | -95.2

System: HOP-62
Assay: Cytotoxicity against human HOP62 cells assessed as cell growth at 10^-5 M after 48 hrs by SRB assay
Format: functional
Settings: HOP-62, 48 h, read-out: Activity

Compound | growth at 10 µM [%]
C=CCn1c(C)nc2cc(Nc3nc(Nc4ccc5nc(C)n(CC=C)c5c4)c4ccccc4n3)ccc21 | -99.5

System: PC-3
Assay: Cytotoxicity against human PC3 cells assessed as cell growth at 10^-5 M after 48 hrs by SRB assay
Format: functional
Settings: PC-3, 48 h, read-out: Activity

Compound | growth at 10 µM [%]
C=CCn1c(C)nc2cc(Nc3nc(Nc4ccc5nc(C)n(CC=C)c5c4)c4ccccc4n3)ccc21 | -100

System: HCT-15
Assay: Cytotoxicity against human HCT15 cells assessed as cell growth at 10^-5 M after 48 hrs by SRB assay
Format: functional
Settings: HCT-15, 48 h, read-out: Activity

Compound | growth at 10 µM [%]
C=CCn1c(C)nc2cc(Nc3nc(Nc4ccc5nc(C)n(CC=C)c5c4)c4ccccc4n3)ccc21 | -78

System: HOP-92
Assay: Cytotoxicity against human HOP92 cells assessed as cell growth at 10^-5 M after 48 hrs by SRB assay
Format: functional
Settings: HOP-92, 48 h, read-out: Activity

Compound | growth at 10 µM [%]
C=CCn1c(C)nc2cc(Nc3nc(Nc4ccc5nc(C)n(CC=C)c5c4)c4ccccc4n3)ccc21 | -97

System: LOX IMVI
Assay: Cytotoxicity against human LOXIMVI cells assessed as cell growth at 10^-5 M after 48 hrs by SRB assay
Format: functional
Settings: read-out: Activity

Compound | growth at 10 µM [%]
C=CCn1c(C)nc2cc(Nc3nc(Nc4ccc5nc(C)n(CC=C)c5c4)c4ccccc4n3)ccc21 | -94

System: SR
Assay: Cytotoxicity against human SR cells assessed as cell growth at 10^-5 M after 48 hrs by SRB assay
Format: functional
Settings: read-out: Activity

Compound | growth at 10 µM [%]
C=CCn1c(C)nc2cc(Nc3nc(Nc4ccc5nc(C)n(CC=C)c5c4)c4ccccc4n3)ccc21 | -44.2

System: SK-MEL-28
Assay: Cytotoxicity against human SK-MEL-28 cells assessed as cell growth at 10^-5 M after 48 hrs by SRB assay
Format: functional
Settings: SK-MEL-28, 48 h, read-out: Activity

Compound | growth at 10 µM [%]
C=CCn1c(C)nc2cc(Nc3nc(Nc4ccc5nc(C)n(CC=C)c5c4)c4ccccc4n3)ccc21 | -88

System: RPMI-8226
Assay: Cytotoxicity against human RPMI8226 cells assessed as cell growth at 10^-5 M after 48 hrs by SRB assay
Format: functional
Settings: RPMI-8226, 48 h, read-out: Activity

Compound | growth at 10 µM [%]
C=CCn1c(C)nc2cc(Nc3nc(Nc4ccc5nc(C)n(CC=C)c5c4)c4ccccc4n3)ccc21 | -41

System: TK-10
Assay: Cytotoxicity against human TK10 cells assessed as cell growth at 10^-5 M after 48 hrs by SRB assay
Format: functional
Settings: TK-10, 48 h, read-out: Activity

Compound | growth at 10 µM [%]
C=CCn1c(C)nc2cc(Nc3nc(Nc4ccc5nc(C)n(CC=C)c5c4)c4ccccc4n3)ccc21 | -100

System: ACHN
Assay: Cytotoxicity against human ACHN cells assessed as cell growth at 10^-5 M after 48 hrs by SRB assay
Format: functional
Settings: read-out: Activity

Compound | growth at 10 µM [%]
C=CCn1c(C)nc2cc(Nc3nc(Nc4ccc5nc(C)n(CC=C)c5c4)c4ccccc4n3)ccc21 | -100

System: NCI-H23
Assay: Cytotoxicity against human NCI-H23 cells assessed as cell growth at 10^-5 M after 48 hrs by SRB assay
Format: functional
Settings: NCI-H23, 48 h, read-out: Activity

Compound | growth at 10 µM [%]
C=CCn1c(C)nc2cc(Nc3nc(Nc4ccc5nc(C)n(CC=C)c5c4)c4ccccc4n3)ccc21 | -69.2

System: 786-0
Assay: Cytotoxicity against human 786-0 cells assessed as cell growth at 10^-5 M after 48 hrs by SRB assay
Format: functional
Settings: 786-0, 48 h, read-out: Activity

Compound | growth at 10 µM [%]
C=CCn1c(C)nc2cc(Nc3nc(Nc4ccc5nc(C)n(CC=C)c5c4)c4ccccc4n3)ccc21 | -80

System: RXF 393
Assay: Cytotoxicity against human RXF393 cells assessed as cell growth at 10^-5 M after 48 hrs by SRB assay
Format: functional
Settings: RXF 393, 48 h, read-out: Activity

Compound | growth at 10 µM [%]
C=CCn1c(C)nc2cc(Nc3nc(Nc4ccc5nc(C)n(CC=C)c5c4)c4ccccc4n3)ccc21 | -97.4

System: COLO 205
Assay: Cytotoxicity against human COLO205 cells assessed as cell growth at 10^-5 M after 48 hrs by SRB assay
Format: functional
Settings: COLO 205, 48 h, read-out: Activity

Compound | growth at 10 µM [%]
C=CCn1c(C)nc2cc(Nc3nc(Nc4ccc5nc(C)n(CC=C)c5c4)c4ccccc4n3)ccc21 | -100

System: SK-MEL-2
Assay: Cytotoxicity against human SK-MEL-2 cells assessed as cell growth at 10^-5 M after 48 hrs by SRB assay
Format: functional
Settings: SK-MEL-2, 48 h, read-out: Activity

Compound | growth at 10 µM [%]
C=CCn1c(C)nc2cc(Nc3nc(Nc4ccc5nc(C)n(CC=C)c5c4)c4ccccc4n3)ccc21 | -84.1

System: CCRF-CEM
Assay: Cytotoxicity against human CCRF-CEM cells assessed as cell growth at 10^-5 M after 48 hrs by SRB assay
Format: functional
Settings: read-out: Activity

Compound | growth at 10 µM [%]
C=CCn1c(C)nc2cc(Nc3nc(Nc4ccc5nc(C)n(CC=C)c5c4)c4ccccc4n3)ccc21 | -29

System: A498
Assay: Cytotoxicity against human A498 cells assessed as cell growth at 10^-5 M after 48 hrs by SRB assay
Format: functional
Settings: A498, 48 h, read-out: Activity

Compound | growth at 10 µM [%]
C=CCn1c(C)nc2cc(Nc3nc(Nc4ccc5nc(C)n(CC=C)c5c4)c4ccccc4n3)ccc21 | -100

System: HL-60(TB)
Assay: Cytotoxicity against human HL-60(TB) cells assessed as cell growth at 10^-5 M after 48 hrs by SRB assay
Format: functional
Settings: HL-60, 48 h, read-out: Activity

Compound | growth at 10 µM [%]
C=CCn1c(C)nc2cc(Nc3nc(Nc4ccc5nc(C)n(CC=C)c5c4)c4ccccc4n3)ccc21 | -70

System: NCI-H322M
Assay: Cytotoxicity against human NCI-H322M cells assessed as cell growth at 10^-5 M after 48 hrs by SRB assay
Format: functional
Settings: read-out: Activity

Compound | growth at 10 µM [%]
C=CCn1c(C)nc2cc(Nc3nc(Nc4ccc5nc(C)n(CC=C)c5c4)c4ccccc4n3)ccc21 | -100

System: HT-29
Assay: Cytotoxicity against human HT-29 cells assessed as cell growth at 10^-5 M after 48 hrs by SRB assay
Format: functional
Settings: HT-29, 48 h, read-out: Activity

Compound | growth at 10 µM [%]
C=CCn1c(C)nc2cc(Nc3nc(Nc4ccc5nc(C)n(CC=C)c5c4)c4ccccc4n3)ccc21 | -71

System: Malme-3M
Assay: Cytotoxicity against human MALME-3M cells assessed as cell growth at 10^-5 M after 48 hrs by SRB assay
Format: functional
Settings: read-out: Activity

Compound | growth at 10 µM [%]
C=CCn1c(C)nc2cc(Nc3nc(Nc4ccc5nc(C)n(CC=C)c5c4)c4ccccc4n3)ccc21 | -76

System: T47D
Assay: Cytotoxicity against human T47D cells assessed as cell growth at 10^-5 M after 48 hrs by SRB assay
Format: functional
Settings: read-out: Activity

Compound | growth at 10 µM [%]
C=CCn1c(C)nc2cc(Nc3nc(Nc4ccc5nc(C)n(CC=C)c5c4)c4ccccc4n3)ccc21 | -60.4

System: K562
Assay: Cytotoxicity against human K562 cells assessed as cell growth at 10^-5 M after 48 hrs by SRB assay
Format: functional
Settings: K562, 48 h, read-out: Activity

Compound | growth at 10 µM [%]
C=CCn1c(C)nc2cc(Nc3nc(Nc4ccc5nc(C)n(CC=C)c5c4)c4ccccc4n3)ccc21 | -67

System: not listed separately
Assay: Cytotoxicity against human Hs578T cells assessed as cell growth at 10^-5 M after 48 hrs by SRB assay
Format: functional
Settings: Hs-578T, read-out: Activity

Compound | growth at 10 µM [%]
C=CCn1c(C)nc2cc(Nc3nc(Nc4ccc5nc(C)n(CC=C)c5c4)c4ccccc4n3)ccc21 | -48.1

System: SF-539
Assay: Cytotoxicity against human SF539 cells assessed as cell growth at 10^-5 M after 48 hrs by SRB assay
Format: functional
Settings: SF-539, 48 h, read-out: Activity

Compound | growth at 10 µM [%]
C=CCn1c(C)nc2cc(Nc3nc(Nc4ccc5nc(C)n(CC=C)c5c4)c4ccccc4n3)ccc21 | -100

System: OVCAR-8
Assay: Cytotoxicity against human OVCAR8 cells assessed as cell growth at 10^-5 M after 48 hrs by SRB assay
Format: functional
Settings: OVCAR-8, 48 h, read-out: Activity

Compound | growth at 10 µM [%]
C=CCn1c(C)nc2cc(Nc3nc(Nc4ccc5nc(C)n(CC=C)c5c4)c4ccccc4n3)ccc21 | -40.9

System: BT-549
Assay: Cytotoxicity against human BT549 cells assessed as cell growth at 10^-5 M after 48 hrs by SRB assay
Format: functional
Settings: BT-549, 48 h, read-out: Activity

Compound | growth at 10 µM [%]
C=CCn1c(C)nc2cc(Nc3nc(Nc4ccc5nc(C)n(CC=C)c5c4)c4ccccc4n3)ccc21 | -96

System: A549
Assay: Cytotoxicity against human A549 cells assessed as cell growth at 10^-5 M after 48 hrs by SRB assay
Format: functional
Settings: A549, 48 h, read-out: Activity

Compound | growth at 10 µM [%]
C=CCn1c(C)nc2cc(Nc3nc(Nc4ccc5nc(C)n(CC=C)c5c4)c4ccccc4n3)ccc21 | -67.1

System: not listed separately
Assay: Cytotoxicity against human OVCAR4 cells assessed as cell growth at 10^-5 M after 48 hrs by SRB assay
Format: functional
Settings: OVCAR-4, 48 h, read-out: Activity

Compound | growth at 10 µM [%]
C=CCn1c(C)nc2cc(Nc3nc(Nc4ccc5nc(C)n(CC=C)c5c4)c4ccccc4n3)ccc21 | -100

System: OVCAR-3
Assay: Cytotoxicity against human OVCAR3 cells assessed as cell growth at 10^-5 M after 48 hrs by SRB assay
Format: functional
Settings: OVCAR-3, 48 h, read-out: Activity

Compound | growth at 10 µM [%]
C=CCn1c(C)nc2cc(Nc3nc(Nc4ccc5nc(C)n(CC=C)c5c4)c4ccccc4n3)ccc21 | -100

System: CAKI-1
Assay: Cytotoxicity against human Caki1 cells assessed as cell growth at 10^-5 M after 48 hrs by SRB assay
Format: functional
Settings: CAKI-1, 48 h, read-out: Activity

Compound | growth at 10 µM [%]
C=CCn1c(C)nc2cc(Nc3nc(Nc4ccc5nc(C)n(CC=C)c5c4)c4ccccc4n3)ccc21 | -95

System: SNB-75
Assay: Cytotoxicity against human SNB75 cells assessed as cell growth at 10^-5 M after 48 hrs by SRB assay
Format: functional
Settings: SNB-75, 48 h, read-out: Activity

Compound | growth at 10 µM [%]
C=CCn1c(C)nc2cc(Nc3nc(Nc4ccc5nc(C)n(CC=C)c5c4)c4ccccc4n3)ccc21 | -96.7
